System: THP-1 viability, CellTiter-Glo luminescence, 72 h
Test: human monocytic cell viability reduction – S. typhimurium screen hits, cytotoxicity control for Salmonella PhoP regulon inhibitors, dose response (AID 2253)

| SMILES | EC50 |
| --- | --- |
| CCN1/C(=C/C(C)=C/c2sc3ccccc3[n+]2CC)Sc2ccccc21 | 13.6 µM |
| CCOc1ccc(CSC(=N)N)cc1[N+](=O)[O-] | 20.4 µM |
| Oc1ccc(CNc2ccccc2F)c2cccnc12 | 4.93 µM |
| Clc1ccc(OCCN2CCN(c3ncnc4sccc34)CC2)cc1 | < 0.1 µM |
| Cc1ccc(S(=O)(=O)/N=C2/C=C(Sc3ncn[nH]3)C(=O)c3ccccc32)c(C)c1 | 5.51 µM |
| Oc1c(CN2CCCCC2)cc(COCc2ccccc2)c2cccnc12 | 6 µM |
| Cc1cc(C(=O)N/N=C/c2cc(Br)cc(Br)c2OC(=O)c2ccccc2)n[nH]1 | 7.53 µM |
| CCc1ccc(S(=O)(=O)/N=C2/C=C(Sc3ncn[nH]3)C(=O)c3ccccc32)cc1 | 4.28 µM |
| CCN1CCN(C(c2ccc(C(F)(F)F)cc2)c2ccc3cccnc3c2O)CC1 (centres undefined) | 1.78 µM |
| CCCCCCCCCCCCCCCCn1cc[n+](C)c1 | 0.37 µM |
| Cc1ccc(-n2c(C)cc(C3=NNC(=NC4CC4)SC3)c2C)cc1C | 21.4 µM |
| CCCCCCCCCCOC(=O)C[N+](C)(C)C/C=C(/C)Cl | 8.56 µM |
| Cc1conc1NC(c1cccs1)c1ccc2cccnc2c1O (centres undefined) | 5.5 µM |
| Nc1nc2ccccc2n1Cc1ccc(Cl)c(Cl)c1 | 24.4 µM |
| c1ccc2c(NC3=NCCS3)cccc2c1 | 31.8 µM |
| O=C(c1ccccc1)C(CN1CCCC1)c1ccccc1 (centres undefined) | 5.56 µM |
| COc1ccc(-n2c(CNc3ccc(C)cc3)nnc2SCc2ccccc2)cc1 | 33.3 µM |
| COC(=O)c1c(C)oc2ccc(NS(=O)(=O)c3cccs3)cc12 | 48.4 µM |
| Nc1nonc1C(=O)NCCN=Cc1cc(Cc2ccccc2)cc(Br)c1O | 37.8 µM |
| Cc1cc(C)c2nc(NNC(=O)c3ccc(S(=O)(=O)N4CCCCC4)cc3)sc2c1 | 4.69 µM |
| Cc1ccc(-c2csc(N=C(N)N)n2)c(C)c1 | 23.5 µM |
| COc1ccc(C(C[N+](=O)[O-])c2c(-c3ccccc3)cc3ccccn23)cc1 (centres undefined) | 12.8 µM |
| CC(=O)Oc1cc2cccc(OC(C)=O)c(=O)c2c(OC(C)=O)c1OC(C)=O | 14.6 µM |

| SMILES | EC50 |
| --- | --- |
| COc1ccc(N(C(=O)CCl)C(C(=O)NCCc2ccccc2)c2cccs2)cc1 (centres undefined) | 3.46 µM |
| NC1=NC[C@H](c2ccccc2)N1CCCCC1CCCCC1 | 5.06 µM |
| CN1CCN(C(c2ccc(Cl)cc2)c2cc(Cl)c3cccnc3c2O)CC1 (centres undefined) | 1.66 µM |
| Cc1cc(Nc2ccccc2)nc2cc(O)ccc12 | 36.6 µM |
| Nc1nc(F)nc2c1ncn2[C@@H]1O[C@H](CO)[C@@H](O)[C@H]1O | 0.3 µM |
| O=C(NC(c1ccc(Cl)cc1)c1c(O)ccc2ccccc12)c1ccccc1 (centres undefined) | 8.91 µM |
| c1ccc(Cc2nnc(-c3ccccc3)o2)cc1 | 30.7 µM |
| CNC[C@H](CC1CCCCC1)NC[C@H](Cc1ccccc1)NCCC12CC3CC(CC(C3)C1)C2 | 3.28 µM |
| CCCCCc1ccc(OCCC[n+]2ccccc2)c(CCCCC)c1 | 2.78 µM |
| N=C(N)SCc1cn(-c2ccccc2)nc1-c1ccc(Br)cc1 | 4.83 µM |
| O=[N+]([O-])c1cc(CN2CCCC2)c2cccnc2c1O | 41.2 µM |
| CCCC(=O)NC(c1cccs1)c1cc([N+](=O)[O-])c2cccnc2c1O (centres undefined) | 7.09 µM |
| O=C(Cn1nc(CNc2ccc(Cl)cc2)[n+]2c1CCCCC2)c1ccc(Br)cc1 | 11.6 µM |
| Cc1nc(N)nc(N)c1/C=C/C(C)(C)c1ccc(Cl)cc1 | < 0.1 µM |
| Oc1ccc(C=Nc2ccc3ncccc3c2)c(O)c1 | 14.2 µM |
| C=CCc1ccccc1OCC(O)CN1CCN(CCN2C(=O)c3cccc4cccc(c34)C2=O)CC1 (centres undefined) | 16.8 µM |
| CCN1CCN(C(c2cccnc2)c2cc(Cl)c3cccnc3c2O)CC1 (centres undefined) | 8.34 µM |
| N#CC1=C(N)N=C(SCc2cccc3ccccc23)C(C(N)=O)C12CCCCC2 (centres undefined) | 20.9 µM |
| Cc1ccccc1OCCCCCn1ccnc1 | 24.4 µM |
| Cc1[nH]c2ccccc2c1C(=O)COC(=O)c1ccc([N+](=O)[O-])s1 | 47.5 µM |
| Cc1cccc(Sc2c([N+](=O)[O-])ncn2C)c1 | 32 µM |
| Cc1scc(C(=O)N/N=C/c2ccc([N+](=O)[O-])o2)c1C | 19.9 µM |
| CCCCC(CC)CN=C(N)NC(N)=NCCCCCCN=C(N)NC(N)=NCC(CC)CCCC (centres undefined) | 1.9 µM |

| SMILES | EC50 |
| --- | --- |
| CCCCCCCSc1cc(OC)c(CCNC)cc1OC | 6.34 µM |
| CCCOc1ccc(C(=O)C(CCC(CNCC)C(=O)c2ccc(OCCC)cc2)CNCC)cc1 (centres undefined) | 1.58 µM |
| Cc1ccc(C)c(/C=C/C(=O)c2ccccc(=O)c2O)c1 | 9.58 µM |
| OC1(c2cccc(C(F)(F)F)c2)CCN(c2ncnc3c2[nH]c2ccccc23)CC1 | 17.6 µM |
| O=C(C[n+]1cccc(CNC(=O)c2ccc(OC(F)F)cc2)c1)Nc1ccc(SC(F)F)cc1 | 11.7 µM |
| COc1ccc(/C=C/c2nc3ccccc3n2Cc2ccccc2OC)cc1 | 13.2 µM |
| Nc1ncn(C2O[C@H](CO)[C@@H](O)[C@H]2O)c(=O)n1 (some centres undefined) | 10.8 µM |
| C=COC(=O)CSc1snc(SCC(=O)OC)c1C#N | 32.3 µM |
| O=c1c(Cl)c(Cl)cnn1-c1ccccc1 | 1.41 µM |
| CCCCOc1ccc(CSC(=N)N)cc1[N+](=O)[O-] | 16.5 µM |
| CCCCCCCSc1cc(OC)c(CCN(C)C)cc1OC | 14.1 µM |
| CCCCCCCNC(=O)C1(CC2CC(c3ccc(Cl)cc3)=NO2)CCNCC1 (centres undefined) | 5.66 µM |
| CC[C@@H](C)[C@H](CNC)NC[C@@H](Cc1cccc2ccccc12)NCCc1cccc(C(F)(F)F)c1 | 7 µM |
| O=C(c1cccs1)c1no[n+]([O-])c1C(=O)c1cccs1 | 2.61 µM |
| COc1ccc(O)c(/C=c2/sc3nc4cc(C)c(C)cc4n3c2=O)c1 | 34.1 µM |
| Cc1ccc(NC(=O)NCC2CCN(Cc3cccc(Cl)c3)CC2)cc1Cl | 13.9 µM |
| O=C1C(SCCO)=C(SCCO)C(=O)c2ccccc21 | 8.13 µM |
| CN1CCN(CCCN2c3ccccc3Sc3ccc(Cl)cc32)CC1 | 14.1 µM |
| Nc1ccc(Nc2ccccc2)cc1 | 11.6 µM |
| Cc1ccc(C(C[N+](=O)[O-])c2c(C)cc3ccccn23)cc1 (centres undefined) | 15.4 µM |
| Cc1sc2ncnc(N/N=C/c3ccccc3O)c2c1C | 0.51 µM |
| c1csc(C2Nc3ccccc3-c3nc4ccccc4n32)c1 (centres undefined) | 33.7 µM |
| O=C(N/N=C/c1ccc([N+](=O)[O-])s1)C(O)c1ccccc1 (centres undefined) | 12.1 µM |

| SMILES | EC50 |
| --- | --- |
| Cc1ccc(Nc2cc(C)c3c(O)cccc3n2)cc1C | 15.2 µM |
| COc1ccc(NC2=NC3(CCCCC3)N=C(N)N2)cc1 | 35.1 µM |
| Oc1c(CN2CCN(c3ccc(F)cc3)CC2)cc(Cl)c2cccnc12 | 6.36 µM |
| CCCCNCCCOc1cccc(Cl)c1Cl | 29.2 µM |
| Oc1[nH]c(=S)sc1/C=C1\C(c2ccccc2)=Nc2ccccc21 | 26 µM |
| O=C(Nc1ccc2snnc2c1)Nc1cccc2ccccc12 | 33.7 µM |
| OC(c1cc(C(F)(F)F)nc2c(Cl)cc(Cl)cc12)C1CCCCN1 (centres undefined) | 12.6 µM |
| CCN(CC(=O)NC(C)(C)C)C(=O)COc1c(Cl)cc(Cl)c2ccc(C)nc12 | 37.3 µM |
| C#CCOCCOCCOCCNc1nc(N2CCN(C(=O)CCCCCCCCCCNC(=O)[C@H](CCCN=C(N)N)n3cc(C[C@@H](C)CC)nn3)CC2)nc(N2CCN(C(=O)CCCCCCCCCCNC(=O)[C@@H]([C@H](C)CC)n3cc(CCCCCN)nn3)CC2)n1 | 5.33 µM |
| Oc1cc(Cl)ccc1Oc1ccc(Cl)cc1Cl | 33.9 µM |
| Cc1cc(C(C)(C)CC(C)(C)C)ccc1OCCOCC[N+](C)(C)Cc1ccccc1 | 1.61 µM |
| CCCCOc1ccc(S(=O)(=O)NNC(=O)C2Cc3c(ccc4ccccc34)O2)cc1 (centres undefined) | 42.6 µM |
| O=C(OCC1O[C@@H](OC(=O)c2cc(O)c(O)c(O)c2)[C@@H](OC(=O)c2cc(O)c(O)c(O)c2)[C@@H](OC(=O)c2cc(O)c(O)c(O)c2)[C@@H]1OC(=O)c1cc(O)c(O)c(O)c1)c1cc(O)c(O)c(O)c1 (some centres undefined) | 14 µM |
| Cn1c(-c2ccc3c(c2)OCO3)cnc1NCc1cccc(Cl)c1 | 15.5 µM |
| CC(C(=O)Nc1cc([N+](=O)[O-])ccc1Cl)N1CCN(c2ccccc2O)CC1 (centres undefined) | 25.6 µM |
| C/C(=N\Nc1nc2ccccc2[nH]1)c1ccc(Cl)s1 | 32.6 µM |
| CCCNC1=C(C)C(=O)C2=C(C1=O)C(COC(N)=O)[C@]1(OC)C3NC3CN21 (some centres undefined) | 10.1 µM |
| CC(=O)n1cc(/C=N/NC(=O)c2sc(C)nc2C)c2ccccc21 | 11.6 µM |
| CCCCCCCCNC(C)C(O)c1ccc(SC(C)C)cc1 (centres undefined) | 10.7 µM |
| C#CCn1cc(/C=N/Nc2nc3ccccc3[nH]2)c2ccccc21 | 6.14 µM |
| O=S1(=O)CCC(NC(=S)SCCOc2ccccc2)C1 (centres undefined) | 16.2 µM |
| Cc1ccc(-c2cc(-c3ccc(Cl)cc3)c(C#N)c(N)n2)o1 | 26.2 µM |
| Fc1ccc(Nc2nc(NCc3ccco3)c3ccccc3n2)cc1 | 6.54 µM |

| SMILES | EC50 |
| --- | --- |
| C[C@H]1O[C@@H](n2cc(F)c(=O)[nH]c2=O)[C@H](O)[C@@H]1O | 43.8 µM |
| COc1cccc(/C=N\NC(=O)Cn2nnc3ccccc32)c1O | 10.9 µM |
| CCOC(=O)N1CCN(S(=O)(=O)c2ccc(C(=O)NNc3nc4cc(C)cc(C)c4s3)cc2)CC1 | 2.88 µM |
| Cc1cc(C)n(-c2nc(NCCN(C)C)c3c4c(sc3n2)CCCC4)n1 | 4.63 µM |
| Cc1ccccc1Nc1cc(C)c2c(O)cccc2n1 | 7.56 µM |
| S=C(NCc1cccnc1)Nc1ccc(Cl)c(Cl)c1 | 40 µM |
| CC1=NN(c2ccc(Cl)cc2)C(=O)C1C(c1cccc(O)c1)c1c(C)[nH]n(-c2ccc(Cl)cc2)c1=O (centres undefined) | 35.5 µM |
| CCOc1ccc(Nc2c3ccccc3nc3ccccc23)cc1 | 1.24 µM |
| COc1cc(C(=O)NC(=S)Nc2ccc3oc(=O)ccc3c2)cc(OC)c1OC | 45.9 µM |
| O=C(Cc1cccs1)Nc1cccc(-c2nc3cc4ccccc4cc3[nH]2)c1 | 12.5 µM |
| Oc1ccc(CN2CCN(Cc3ccccc3)CC2)c2cccnc12 | 12.9 µM |
| COc1ccc2c(c1)nc(N)n2Cc1ccccc1 | 46.3 µM |
| CCOc1cc(/C=N/N=C(N)N)ccc1OCc1ccc(Cl)cc1 | 5.19 µM |
| C1=C(CCNc2ncnc3c2[nH]c2ccccc23)CCCC1 | 6.37 µM |
| COc1ccccc1-c1cc(C(=O)Nc2cc(C)nn2-c2ccccc2)no1 | 25.6 µM |
| NC1=NC[C@@H](Cc2ccc(O)cc2)N1CCCCC1CCCCC1 | 5.45 µM |
| O=C(CSc1nc2ccccc2s1)N/N=C/c1cc([N+](=O)[O-])ccc1O | 26.4 µM |
| O=C(N/N=C/c1ccc(O)cc1O)C(=O)N/N=C/c1ccc(O)cc1O | 6.9 µM |
| OCCN1CCN(Cc2cc(Cl)c3cccnc3c2O)CC1 | 12 µM |
| C=C1c2c(Cl)ccc(O)c2C(O)=C2C(=O)[C@]3(O)C(O)=C(C(N)=O)C(=O)[C@@H](N(C)C)[C@@H]3[C@@H](O)C12 (some centres undefined) | 13 µM |
| O=S(=O)(Nc1ccc(N=Nc2ccc(O)c3ccccc23)cc1)c1ccccc1 | 22 µM |
| Oc1ccc(Cl)cc1Cc1cc(Cl)ccc1O | 19.6 µM |

Source: PubChem BioAssay AID2253 (Southern Research Specialized Biocontainment Screening …, 2010)
